Structures are written as SMILES. Read-outs that look alike come from different tables or passages of the source.

For series [1], the target named is human 5-HT2A receptor (Homo sapiens (Human), UniProt P28223). Kind of series: Radioligand binding assay, [3H]-ketanserin, human 5-HT2A receptor. The method, boiled down:
(§1)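 Incubation was 1 h at RT, using 1.1 nM [3H]-ketanserin at 5-HT2A or 0.5 nM [3H]-spiperone at D3, on membranes of transiently transfected HEK293 EBNA cells. Nonspecific binding was set with 10 μM unlabelled spiperone.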

Series [2] addresses human D2 receptor (Homo sapiens (Human), UniProt P14416). Kind of series: Radioligand binding assay, [3H]-spiperone, human D2 receptor. The note with it: membranes of HEK293 EBNA cells expressing human D2; 0.7 nM [3H]-spiperone. The method, boiled down: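 Competition binding used ~0.7 nM [3H]-spiperone, 1 h at room temperature, pH 7.4 Tris/salt buffer, on transiently transfected HEK293 EBNA membranes bearing human D2.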

For series [3], the target named is human D3 receptor (Homo sapiens (Human), UniProt P35462). Kind of series: Radioligand binding assay, [3H]-spiperone, human D3 receptor. The note with it: membranes of HEK293 EBNA cells expressing human D3; 0.5 nM [3H]-spiperone. The gist of the method: as §1
The mark [4] stands for this setting: membranes of HEK293 EBNA cells expressing human 5-HT2A, 1.1 nM [3H]-ketanserin.

Sequence of human 5-HT2A receptor (P28223 whole entry): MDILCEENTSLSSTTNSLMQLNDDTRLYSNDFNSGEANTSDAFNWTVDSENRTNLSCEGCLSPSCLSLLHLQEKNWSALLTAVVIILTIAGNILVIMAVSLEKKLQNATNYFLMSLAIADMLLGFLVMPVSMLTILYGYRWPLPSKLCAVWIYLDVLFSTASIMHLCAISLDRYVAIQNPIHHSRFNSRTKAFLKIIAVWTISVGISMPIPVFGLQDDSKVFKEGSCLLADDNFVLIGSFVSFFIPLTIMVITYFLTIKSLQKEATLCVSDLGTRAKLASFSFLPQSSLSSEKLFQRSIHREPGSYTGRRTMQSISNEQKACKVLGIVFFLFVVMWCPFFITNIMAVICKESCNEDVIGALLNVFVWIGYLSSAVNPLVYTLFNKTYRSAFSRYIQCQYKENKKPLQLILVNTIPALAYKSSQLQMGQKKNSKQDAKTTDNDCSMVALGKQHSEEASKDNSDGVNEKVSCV
Sequence of human D3 receptor (P35462 whole entry): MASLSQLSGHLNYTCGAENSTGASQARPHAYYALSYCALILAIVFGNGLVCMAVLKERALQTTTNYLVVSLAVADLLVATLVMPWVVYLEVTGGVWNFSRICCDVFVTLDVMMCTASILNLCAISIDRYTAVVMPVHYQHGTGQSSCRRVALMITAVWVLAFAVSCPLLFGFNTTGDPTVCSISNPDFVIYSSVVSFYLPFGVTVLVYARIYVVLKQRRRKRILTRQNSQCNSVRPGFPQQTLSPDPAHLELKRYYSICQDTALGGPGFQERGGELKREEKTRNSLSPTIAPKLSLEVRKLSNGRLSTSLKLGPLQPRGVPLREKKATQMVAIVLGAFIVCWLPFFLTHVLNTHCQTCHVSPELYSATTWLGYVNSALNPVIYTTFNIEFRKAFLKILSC
Sequence of human D2 receptor (P14416 whole entry): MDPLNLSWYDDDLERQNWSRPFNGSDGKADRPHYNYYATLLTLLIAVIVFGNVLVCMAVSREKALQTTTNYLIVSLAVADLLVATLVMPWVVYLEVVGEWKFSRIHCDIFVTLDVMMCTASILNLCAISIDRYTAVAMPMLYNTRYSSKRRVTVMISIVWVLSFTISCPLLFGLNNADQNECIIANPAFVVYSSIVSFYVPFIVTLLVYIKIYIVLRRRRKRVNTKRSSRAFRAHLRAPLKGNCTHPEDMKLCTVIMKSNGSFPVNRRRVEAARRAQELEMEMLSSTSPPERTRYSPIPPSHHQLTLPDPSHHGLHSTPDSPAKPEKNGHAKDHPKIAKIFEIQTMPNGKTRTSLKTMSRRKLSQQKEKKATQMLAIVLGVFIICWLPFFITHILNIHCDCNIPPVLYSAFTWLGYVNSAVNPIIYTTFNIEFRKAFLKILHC

Broadly, the melting point is the temperature of the solid-liquid transition. The term Ki denotes a dissociation constant, usually derived from enzyme kinetics or from competition with a known ligand. `N#CCC(=O)N[C@H]1CC[C@H](CCN2CCN(c3nccc4c3CCO4)CC2)CC1` [Example 59, trans-2-Cyano-N-(4-{2-[4-(2,3-dihydro-furo[3,2-c]pyridin-4-yl)-piperazin-1-yl]-ethyl}-cyclohexyl)-acetamide] gave a melting point of 188 °C. Also, the Ki in series [1] stood at 15.7 nM. Further, in series [2], the Ki came to 702 nM. Further, the Ki in series [3] was found to be 7.74 nM.
Consider `O=C(CC(F)(F)F)N[C@H]1CC[C@H](CCN2CCN(c3nccc4c3CCO4)CC2)CC1` [Example 60, trans-N-(4-{2-[4-(2,3-Dihydro-furo[3,2-c]pyridin-4-yl)-piperazin-1-yl]-ethyl}-cyclohexyl)-3,3,3-trifluoro-propionamide], for which the melting point is 195.5 °C. Besides, the Ki in series [1] (setting [4]) came to 11 nM. Also, in series [2], the inhibition constant (Ki) amounted to 688 nM. Also, the inhibition constant (Ki) in series [3] came out at 6.55 nM.
Turning to `O=C(N[C@H]1CC[C@H](CCN2CCN(c3nccc4c3CCO4)CC2)CC1)C1CC1` [Example 63, Cyclopropanecarboxylic acid trans-(4-{2-[4-(2,3-dihydro-furo[3,2-c]pyridin-4-yl)-piperazin-1-yl]-ethyl}-cyclohexyl)-amide], the melting point was 213 °C. In series [1] (setting [4]), the inhibitory constant (Ki) amounted to 11.1 nM. The Ki in series [2] is 486 nM. Further, in series [3], the Ki was 18.5 nM.
The matching figures for `CO[C@H]1CC[C@H](CC(=O)N[C@H]2CC[C@H](CCN3CCN(c4nccc5c4CCO5)CC3)CC2)CC1` [Example 65, trans-N-(4-{2-[4-(2,3-Dihydro-furo[3,2-c]pyridin-4-yl)-piperazin-1-yl]-ethyl}-cyclohexyl)-2-trans-(4-methoxy-cyclohexyl)-acetamide]: 192.5 °C, 14.9 nM, 2450 nM and 24.1 nM.
The matching figures for `CN(C)S(=O)(=O)N[C@H]1CC[C@H](CCN2CCN(c3nccc4c3CCO4)CC2)CC1` [Example 66, N′-trans-(4-{2-[4-(2,3-dihydro-furo[3,2-c]pyridin-4-yl)-piperazin-1-yl]-ethyl}-cyclohexyl)-N,N-dimethyl-sulfamide]: 139.5 °C, 11.5 nM, 782 nM and 24.9 nM.
Take `O=C(C[C@H]1CCCO1)N[C@H]1CC[C@H](CCN2CCN(c3nccc4c3CCO4)CC2)CC1` [Example 68, trans-N-(4-{2-[4-(2,3-Dihydro-furo[3,2-c]pyridin-4-yl)-piperazin-1-yl]-ethyl}-cyclohexyl)-2-(R)-(tetrahydro-furan-2-yl)-acetamide]: the melting point amounted to 183 °C. Moreover, in series [1], the inhibitory constant (Ki) turned out to be 14.6 nM. For the same compound, in series [2], the inhibitory constant (Ki) worked out at 915 nM. In addition, in series [3], the Ki was determined as 27.1 nM.
The compound `O=C(C[C@@H]1CCCO1)N[C@H]1CC[C@H](CCN2CCN(c3nccc4c3CCO4)CC2)CC1` [Example 69, trans-N-(4-{2-[4-(2,3-Dihydro-furo[3,2-c]pyridin-4-yl)-piperazin-1-yl]-ethyl}-cyclohexyl)-2-(S)-(tetrahydro-furan-2-yl)-acetamide] came in with a melting point of 183.5 °C. Besides, the inhibition constant (Ki) in series [1] came out at 24.9 nM. For the same compound, the Ki in series [2] amounted to 858 nM. Besides, in series [3], the inhibition constant Ki is 18.1 nM.
As to `CC(C)(C)C(=O)N[C@H]1CC[C@H](CCN2CCN(c3nccc4c3CCO4)CC2)CC1` [Example 70, trans-N-(4-{2-[4-(2,3-Dihydro-furo[3,2-c]pyridin-4-yl)-piperazin-1-yl]-ethyl}-cyclohexyl)-2,2-dimethyl-propionamide], the melting point turned out to be 185 °C. Besides, the Ki in series [1] was 9.4 nM. Also, in series [2], the inhibition constant Ki was 524 nM. Further, the Ki in series [3] was found to be 59.2 nM.
Compound `CC(C)CC(=O)N[C@H]1CC[C@H](CCN2CCN(c3nccc4c3CCO4)CC2)CC1` [Example 71, trans-N-(4-{2-[4-(2,3-Dihydro-furo[3,2-c]pyridin-4-yl)-piperazin-1-yl]-ethyl}-cyclohexyl)-3-methyl-butyramide] registered a melting point of 202.5 °C. Also, the inhibition constant Ki in series [1] (setting [4]) amounted to 15.7 nM. The Ki in series [2] is 655 nM. Further, the Ki in series [3] was determined as 10.9 nM.
The matching figures for `CC(C)(C)CC(=O)N[C@H]1CC[C@H](CCN2CCN(c3nccc4c3CCO4)CC2)CC1` [Example 72, trans-N-(4-{2-[4-(2,3-Dihydro-furo[3,2-c]pyridin-4-yl)-piperazin-1-yl]-ethyl}-cyclohexyl)-3,3-dimethyl-butyramide]: 192.5 °C, 16.2 nM, 444 nM and 17 nM.
In turn, `O=C(CC1CCC1)N[C@H]1CC[C@H](CCN2CCN(c3nccc4c3CCO4)CC2)CC1` [Example 73, trans-2-Cyclobutyl-N-(4-{2-[4-(2,3-dihydro-furo[3,2-c]pyridin-4-yl)-piperazin-1-yl]-ethyl}-cyclohexyl)-acetamide] returned a melting point of 193 °C. Also, the Ki in series [1] (setting [4]) stood at 13.3 nM. Besides, the inhibitory constant (Ki) in series [2] came out at 603 nM. The inhibition constant (Ki) in series [3] is 8.92 nM.
The matching figures for `O=C(N[C@H]1CC[C@H](CCN2CCN(c3nccc4c3CCO4)CC2)CC1)C1CC1(F)F` (stereo partly drawn) [Example 74, trans-2,2-Difluoro-cyclopropanecarboxylic acid (4-{2-[4-(2,3-dihydro-furo[3,2-c]pyridin-4-yl)-piperazin-1-yl]-ethyl}-cyclohexyl)-amide]: 184.5 °C, 17.3 nM, 438 nM and 23.8 nM.
The compound `CC(C)C(=O)N[C@H]1CC[C@H](CCN2CCN(c3nccc4c3CCO4)CC2)CC1` [Example 75, trans-N-(4-{2-[4-(2,3-Dihydro-furo[3,2-c]pyridin-4-yl)-piperazin-1-yl]-ethyl}-cyclohexyl)-isobutyramide] had a melting point of 219 °C. For the same compound, the Ki in series [1] is 10.2 nM. The Ki in series [2] was determined as 705 nM. Besides, in series [3], the inhibitory constant (Ki) is 16.6 nM.
For `O=C(CC1COC1)N[C@H]1CC[C@H](CCN2CCN(c3nccc4c3CCO4)CC2)CC1` [Example 77, trans-N-(4-{2-[4-(2,3-Dihydro-furo[3,2-c]pyridin-4-yl)-piperazin-1-yl]-ethyl}-cyclohexyl)-2-oxetan-3-yl-acetamide], the melting point was 195 °C. Moreover, in series [1] (setting [4]), the Ki is 11 nM. Moreover, the Ki in series [2] turned out to be 755 nM. Moreover, the Ki in series [3] was 12.1 nM.
Consider `CN(C)C(=O)N[C@H]1CC[C@H](CCN2CCN(c3nccc4c3CCO4)CC2)CC1` [Example 78, trans-3-(4-{2-[4-(2,3-Dihydro-furo[3,2-c]pyridin-4-yl)-piperazin-1-yl]-ethyl}-cyclohexyl)-1,1-dimethyl-urea], for which the melting point was determined as 260 °C. In addition, in series [1], the Ki worked out at 28.7 nM. Further, in series [2], the Ki was determined as 322 nM. The Ki in series [3] was 92.8 nM.
`O=C(N[C@H]1CC[C@H](CCN2CCN(c3nccc4c3CCO4)CC2)CC1)C(F)(F)F` [Example 79, trans-N-(4-{2-[4-(2,3-Dihydro-furo[3,2-c]pyridin-4-yl)-piperazin-1-yl]-ethyl}-cyclohexyl)-2,2,2-trifluoro-acetamide] returned a melting point of 213 °C. For the same compound, the inhibitory constant (Ki) in series [1] (setting [4]) is 19.2 nM. Further, the Ki in series [2] turned out to be 773 nM. Further, the inhibition constant (Ki) in series [3] was 47.3 nM.
